Among the data in patent US9403823B2, “Protein kinase inhibitors” (ORIBASE PHARMA, priority 2012, dated 2016) are EC50 and inhibition values, retold here.

Read-outs that look alike come from different tables or passages of the source.

In assay [1] the test system is A549 cell line. The assay is described as follows: In vitro cell proliferation assay (MTT), A549. It is filed as cell-based. As to conditions: Homo sapiens, read-out: EC50, anti-proliferative activity. As for the experimental part: (§1) 2) In Vitro Cell Proliferation Assays (Table 22 to Table 35)
(§2) Cancer cell lines (5×10^3 cells per well) or HUVEC (1×10^4 cells per well) or HRMEC (1×10^4 cells per well) were distributed in 96-well plates and incubating in duplicate with escalating concentrations (10 nM to 3 μM) of compounds for 72 hr. Cell proliferation was measured using MTT (3[4,5-dimethylthiazol-2-yl]-2,5-diphenyltetrazolium bromide).

For assay [2], the target named is T1, BRAF (Homo sapiens, UniProt P15056).
T1 construct: purchased Invitrogen
T1 sequence (P15056 whole entry): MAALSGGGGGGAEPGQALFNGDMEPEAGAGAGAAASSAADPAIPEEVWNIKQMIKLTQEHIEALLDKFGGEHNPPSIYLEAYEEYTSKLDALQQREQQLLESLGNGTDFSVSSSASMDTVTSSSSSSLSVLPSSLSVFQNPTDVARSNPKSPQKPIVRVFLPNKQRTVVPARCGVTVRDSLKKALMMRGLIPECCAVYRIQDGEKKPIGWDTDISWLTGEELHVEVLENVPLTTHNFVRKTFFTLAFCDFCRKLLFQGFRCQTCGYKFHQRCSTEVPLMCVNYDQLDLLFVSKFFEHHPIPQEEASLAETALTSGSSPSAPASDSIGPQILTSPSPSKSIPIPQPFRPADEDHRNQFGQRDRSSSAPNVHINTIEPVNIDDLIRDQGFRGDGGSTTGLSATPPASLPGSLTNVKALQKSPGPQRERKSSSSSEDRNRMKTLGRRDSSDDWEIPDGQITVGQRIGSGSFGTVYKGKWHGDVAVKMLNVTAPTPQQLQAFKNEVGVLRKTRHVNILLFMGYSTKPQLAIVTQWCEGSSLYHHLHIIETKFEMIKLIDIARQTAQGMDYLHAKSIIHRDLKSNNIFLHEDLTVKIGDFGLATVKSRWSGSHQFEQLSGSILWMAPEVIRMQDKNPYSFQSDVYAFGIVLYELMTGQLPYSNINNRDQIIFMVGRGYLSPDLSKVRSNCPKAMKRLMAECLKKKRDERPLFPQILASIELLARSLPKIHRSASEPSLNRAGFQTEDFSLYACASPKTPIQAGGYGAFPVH
Description: In vitro kinase assay (Z'-LYTE), BRAF. Type of assay: biochemical. Particulars: read-out: % of inhibition of the kinase compared to the control. As for the experimental part: (§3) 1) In Vitro Kinase Assays (Table 10 to Table 21)
(§4) The inhibitory activity of the compounds on several kinases including BRAF, EGFR (ErbB1), EGFR (ErbB1) T790M L858R, FGFR2, KDR (VEGFR2), PDGFRA (PDGFR alpha), SRC and other was evaluated by Invitrogen using the Z′-LYTE® technology. Briefly, the Z′-LYTE® biochemical assay employs a fluorescence-based, coupled-enzyme format and is based on the differential sensitivity of phosphorylated and non-phosphorylated peptides to proteolytic cleavage. The peptide substrate is labeled with two fluorophores—one at each end—that make up a FRET pair. A ratiometric method, which calculates the ratio (the Emission Ratio) of donor emission to acceptor emission after excitation of the donor fluorophore at 400 nm, is used to quantitate reaction progress.
(§5) The compounds are screened in 1% DMSO (final) in the well. For 10 point titrations, 3-fold serial dilutions are conducted from the starting concentration. All Peptide/Kinase Mixtures are diluted to a 2× working concentration in the appropriate Kinase Buffer. All ATP Solutions are diluted to a 4× working concentration in Kinase Buffer (50 mM HEPES pH 7.5, 0.01% BRIJ-35, 10 mM MgCl2, 1 mM EGTA). ATP Km apparent is previously determined using a Z′-LYTE® assay.
(§6) Each compound was incubated at a concentration of 100 nM (excepted to test the activity against ABL and ABL T315I for which the compounds were incubated at a concentration of 10 μM) and the tables 10 to 21 summarize the results obtained showing the inhibitory power of a compound.

For assay [3], the target named is T2, EGFR (ErbB1) (Homo sapiens, UniProt P00533).
T2 construct: purchased Invitrogen
T2 sequence (P00533 25-1210): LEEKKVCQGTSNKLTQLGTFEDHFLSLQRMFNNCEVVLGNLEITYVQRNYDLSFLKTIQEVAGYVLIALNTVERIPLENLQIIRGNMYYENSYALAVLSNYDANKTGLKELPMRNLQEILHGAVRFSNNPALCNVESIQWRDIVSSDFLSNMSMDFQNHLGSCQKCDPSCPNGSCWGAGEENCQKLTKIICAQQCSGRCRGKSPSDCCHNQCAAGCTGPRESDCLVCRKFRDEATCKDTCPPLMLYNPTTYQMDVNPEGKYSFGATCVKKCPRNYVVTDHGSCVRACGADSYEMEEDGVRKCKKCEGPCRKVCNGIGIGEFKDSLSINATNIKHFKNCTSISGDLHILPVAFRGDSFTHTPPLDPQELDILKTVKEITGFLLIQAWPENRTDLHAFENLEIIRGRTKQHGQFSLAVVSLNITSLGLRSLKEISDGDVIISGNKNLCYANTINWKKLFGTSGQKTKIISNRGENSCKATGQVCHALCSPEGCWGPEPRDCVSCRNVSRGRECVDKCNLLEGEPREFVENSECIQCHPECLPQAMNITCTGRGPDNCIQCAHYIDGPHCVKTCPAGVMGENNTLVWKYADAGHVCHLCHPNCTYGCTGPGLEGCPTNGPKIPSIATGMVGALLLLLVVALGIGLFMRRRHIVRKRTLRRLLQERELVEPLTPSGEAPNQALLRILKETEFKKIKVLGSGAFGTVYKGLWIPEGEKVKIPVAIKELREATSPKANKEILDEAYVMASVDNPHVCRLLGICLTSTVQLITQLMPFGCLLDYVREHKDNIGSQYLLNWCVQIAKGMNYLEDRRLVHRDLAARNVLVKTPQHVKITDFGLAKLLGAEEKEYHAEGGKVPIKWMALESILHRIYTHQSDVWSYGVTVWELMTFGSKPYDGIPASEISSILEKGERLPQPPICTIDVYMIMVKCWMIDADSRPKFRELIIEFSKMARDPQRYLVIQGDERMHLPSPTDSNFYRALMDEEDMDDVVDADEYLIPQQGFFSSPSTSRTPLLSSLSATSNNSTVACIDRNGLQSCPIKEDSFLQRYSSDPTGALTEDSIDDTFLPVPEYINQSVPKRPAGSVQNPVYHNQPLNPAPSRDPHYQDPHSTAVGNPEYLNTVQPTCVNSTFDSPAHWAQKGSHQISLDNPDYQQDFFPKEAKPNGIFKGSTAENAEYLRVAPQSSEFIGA
Description: In vitro kinase assay (Z'-LYTE), EGFR (ErbB1). Type of assay: biochemical. As to conditions: read-out: % of inhibition of the kinase compared to the control. The method, then:
as §3, §4, §5, §6

Assay [4] concerns the target T3, EGFR (ErbB1) T790M L858R (Homo sapiens, UniProt P00533, L858R/T790M).
T3 construct: purchased Invitrogen
Description: In vitro kinase assay (Z'-LYTE), EGFR (ErbB1) T790M L858R. It is filed as biochemical. As to conditions: read-out: % of inhibition of the kinase compared to the control. As for the experimental part: as §3, §4, §5, §6

The target in assay [5] is T4, SRC (Homo sapiens, UniProt P12931).
T4 construct: purchased Invitrogen
T4 sequence (P12931 whole entry): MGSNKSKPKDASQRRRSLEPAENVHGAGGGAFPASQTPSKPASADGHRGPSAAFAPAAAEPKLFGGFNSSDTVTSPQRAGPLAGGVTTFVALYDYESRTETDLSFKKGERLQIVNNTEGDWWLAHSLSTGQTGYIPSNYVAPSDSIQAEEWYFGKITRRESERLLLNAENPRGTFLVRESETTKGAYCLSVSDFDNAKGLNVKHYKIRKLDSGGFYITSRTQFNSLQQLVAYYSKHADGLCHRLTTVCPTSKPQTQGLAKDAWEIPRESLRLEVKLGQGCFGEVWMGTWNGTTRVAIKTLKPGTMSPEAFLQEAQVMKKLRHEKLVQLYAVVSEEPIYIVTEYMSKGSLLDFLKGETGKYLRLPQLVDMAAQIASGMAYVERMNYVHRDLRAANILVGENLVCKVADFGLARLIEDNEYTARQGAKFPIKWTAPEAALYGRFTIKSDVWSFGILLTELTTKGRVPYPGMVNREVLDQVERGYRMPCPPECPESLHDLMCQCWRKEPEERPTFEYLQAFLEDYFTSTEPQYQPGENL
The assay is described as follows: In vitro kinase assay (Z'-LYTE), SRC. It is filed as biochemical. Particulars: read-out: % of inhibition of the kinase compared to the control. The method, then: as §3, §4, §5, §6

Assay [6] has as its target T5, FGFR2 (Homo sapiens, UniProt P21802).
T5 construct: purchased Invitrogen
The assay is described as follows: In vitro kinase assay (Z'-LYTE), FGFR2. As to conditions: read-out: % of inhibition of the kinase compared to the control. It is filed as biochemical. The method, then: as §3, §4, §5, §6

The target in assay [7] is T6, PDGFRA (PDGFR alpha) (Homo sapiens, UniProt P16234).
T6 construct: purchased Invitrogen
The assay is described as follows: In vitro kinase assay (Z'-LYTE), PDGFRA. Type of assay: biochemical. Particulars: read-out: % of inhibition of the kinase compared to the control. The method, then: as §3, §4, §5, §6

In assay [8] the target is T7, KDR (VEGFR2) (Homo sapiens, UniProt P35968).
T7 construct: purchased Invitrogen
T7 sequence (P35968 20-1356): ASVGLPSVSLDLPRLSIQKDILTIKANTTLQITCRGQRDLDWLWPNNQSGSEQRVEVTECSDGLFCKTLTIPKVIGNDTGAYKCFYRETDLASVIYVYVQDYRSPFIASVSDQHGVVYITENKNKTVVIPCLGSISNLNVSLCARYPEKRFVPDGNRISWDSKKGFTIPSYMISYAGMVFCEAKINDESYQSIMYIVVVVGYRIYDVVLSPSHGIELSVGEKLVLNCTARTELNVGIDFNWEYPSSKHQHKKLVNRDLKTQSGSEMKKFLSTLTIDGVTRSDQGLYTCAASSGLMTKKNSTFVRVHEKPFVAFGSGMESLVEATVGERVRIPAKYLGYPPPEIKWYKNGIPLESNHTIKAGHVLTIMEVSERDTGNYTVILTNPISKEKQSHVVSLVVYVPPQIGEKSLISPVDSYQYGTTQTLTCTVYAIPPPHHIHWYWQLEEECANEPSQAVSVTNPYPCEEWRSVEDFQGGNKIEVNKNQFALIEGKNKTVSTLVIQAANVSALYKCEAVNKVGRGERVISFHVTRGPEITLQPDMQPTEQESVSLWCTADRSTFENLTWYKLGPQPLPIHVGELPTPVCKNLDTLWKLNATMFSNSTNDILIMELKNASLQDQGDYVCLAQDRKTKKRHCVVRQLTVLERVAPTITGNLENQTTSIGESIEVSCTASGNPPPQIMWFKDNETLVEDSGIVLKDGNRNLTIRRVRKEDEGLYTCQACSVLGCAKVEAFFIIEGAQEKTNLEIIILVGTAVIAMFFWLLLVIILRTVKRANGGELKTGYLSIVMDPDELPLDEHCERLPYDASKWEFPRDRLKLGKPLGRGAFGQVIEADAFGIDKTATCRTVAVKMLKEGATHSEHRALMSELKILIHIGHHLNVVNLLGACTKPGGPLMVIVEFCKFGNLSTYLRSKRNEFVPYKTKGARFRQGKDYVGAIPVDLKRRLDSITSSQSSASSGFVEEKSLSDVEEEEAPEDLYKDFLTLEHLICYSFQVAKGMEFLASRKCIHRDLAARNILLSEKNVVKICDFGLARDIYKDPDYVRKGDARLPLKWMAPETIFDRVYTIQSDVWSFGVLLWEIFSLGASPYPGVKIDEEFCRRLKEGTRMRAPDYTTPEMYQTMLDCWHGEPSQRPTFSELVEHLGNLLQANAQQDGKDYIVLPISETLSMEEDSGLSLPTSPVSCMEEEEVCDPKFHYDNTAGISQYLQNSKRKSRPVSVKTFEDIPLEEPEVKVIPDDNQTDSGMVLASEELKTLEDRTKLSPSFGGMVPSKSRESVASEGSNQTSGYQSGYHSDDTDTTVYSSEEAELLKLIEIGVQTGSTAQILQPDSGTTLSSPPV
The assay is described as follows: In vitro kinase assay (Z'-LYTE), KDR (VEGFR2). It is filed as biochemical. As to conditions: read-out: % of inhibition of the kinase compared to the control. As for the experimental part:
as §3, §4, §5, §6

Assay [9] deals with MDA-MB-231 cell line. Description: In vitro cell proliferation assay (MTT), MDA-MB-231. Type of assay: cell-based. Particulars: Homo sapiens, read-out: EC50, anti-proliferative activity. The method, then: as §1, §2
Assay [10] concerns HepG2 cell line. The assay is described as follows: In vitro cell proliferation assay (MTT), HepG2. It is filed as cell-based. As to conditions: Homo sapiens, read-out: EC50, anti-proliferative activity. As for the experimental part:
as §1, §2

Assay [11] deals with HUVEC. The assay is described as follows: In vitro cell proliferation assay (MTT), HUVEC. It is filed as cell-based. Particulars: Homo sapiens, read-out: EC50, anti-proliferative activity. As for the experimental part: as §1, §2
Assay [12] concerns HeLa cell line. Description: In vitro cell proliferation assay (MTT), HeLa. It is filed as cell-based. Particulars: Homo sapiens, read-out: EC50, anti-proliferative activity. The method, then: as §1, §2

T5 sequence (P21802 22-821): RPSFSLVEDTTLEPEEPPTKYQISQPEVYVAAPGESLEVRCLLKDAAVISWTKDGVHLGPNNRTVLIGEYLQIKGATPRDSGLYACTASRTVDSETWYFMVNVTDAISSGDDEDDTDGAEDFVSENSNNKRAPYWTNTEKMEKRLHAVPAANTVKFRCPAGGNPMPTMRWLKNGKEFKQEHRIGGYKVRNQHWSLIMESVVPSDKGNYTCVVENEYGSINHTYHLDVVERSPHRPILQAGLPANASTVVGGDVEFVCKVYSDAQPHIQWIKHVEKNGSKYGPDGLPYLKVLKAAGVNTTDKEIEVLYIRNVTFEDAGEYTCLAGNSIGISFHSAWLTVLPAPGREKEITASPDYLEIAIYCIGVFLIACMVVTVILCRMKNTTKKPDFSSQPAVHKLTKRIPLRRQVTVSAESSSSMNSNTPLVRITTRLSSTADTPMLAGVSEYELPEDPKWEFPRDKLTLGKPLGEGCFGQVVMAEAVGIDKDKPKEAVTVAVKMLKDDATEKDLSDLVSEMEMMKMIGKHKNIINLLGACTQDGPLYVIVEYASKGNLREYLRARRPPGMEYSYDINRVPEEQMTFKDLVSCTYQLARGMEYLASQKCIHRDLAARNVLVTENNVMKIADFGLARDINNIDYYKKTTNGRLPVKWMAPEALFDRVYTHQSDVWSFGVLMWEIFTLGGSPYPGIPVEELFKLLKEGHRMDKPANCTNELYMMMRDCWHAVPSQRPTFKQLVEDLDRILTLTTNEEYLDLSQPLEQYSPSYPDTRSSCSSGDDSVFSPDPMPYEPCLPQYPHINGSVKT

Broadly, the EC50 is the concentration giving half of the maximal effect. Consider `C#Cc1cccc(Nc2ncnc3cc(OCCOC)c(OCCOC)cc23)c1` [Erlotinib, reference compound], for which the concentration for a half-maximal effect (EC50) in assay [1] (A549, 72 hr, MTT) is not below 1 µM.

Usually inhibition stands for the relative decrease from the control value, in per cent. As for `Cc1ccc(NC(=O)c2ccc(CN3CCN(C)CC3)cc2)cc1CNc1cnc2[nH]c(C(=O)O)cc2c1` [OR0692, 5-{2-Methyl-5-[4-(4-methyl-piperazin-1-ylmethyl)-benzoylamino]-benzylamino}-1H-pyrrolo[2,3-b]pyridine-2-carboxylic acid], the inhibition at 0.1 µM in [2] is less than 50%; in [3] it was not below 50%; in assay [4], less than 50%; in [5] it was not below 50%; in assay [6], less than 50%; in assay [7], not below 50%. In assay [8], the inhibition at 0.1 µM is not below 50%.

Consider `CC(=O)c1cc2cc(NCc3cc(NC(=O)c4cc(-n5cnc(C)c5)cc(C(F)(F)F)c4)ccc3C)cnc2[nH]1` [OR0719, N-{3-[(2-Acetyl-1H-pyrrolo[2,3-b]pyridin-5-ylamino)-methyl]-4-methyl-phenyl}-3-(4-methyl-imidazol-1-yl)-5-trifluoromethyl-benzamide], for which the inhibition at 0.1 µM in [2] is not below 50%; in assay [3] it was less than 50%; in [4] it was less than 50%; in assay [5] it was not below 50%; in assay [6], less than 50%; in assay [7] it was less than 50%. In [8], the inhibition at 0.1 µM is less than 50%.

For `CC(=O)c1cc2cc(NCc3cc(NC(=O)c4ccc(CN5CCN(C)CC5)c(F)c4)ccc3C)cnc2[nH]1` [OR0885, N-{3-[(2-Acetyl-1H-pyrrolo[2,3-b]pyridin-5-ylamino)-methyl]-4-methyl-phenyl}-3-fluoro-4-(4-methyl-piperazin-1-ylmethyl)-benzamide], the inhibition at 0.1 µM in [2], in assay [3], in assay [6] and in assay [8] was not below 50% throughout. In addition, the EC50 in [1] (A549, 72 hr, MTT) was not below 1 µM; in assay [9] (MDA-MB-231, 72 h), 0.1 to 1 µM; in assay [10] (HepG2, 72 h), 0.1 to 1 µM; in [11] (72 hr, MTT), not below 1 µM; in assay [12] (72 hr, MTT), not below 1 µM.

For `CC(=O)c1cc2cc(NCc3cccc(NC(=O)c4ccc(CN5CCN(C)CC5)c(C(F)(F)F)c4)c3)cnc2[nH]1` [OR0926, N-{3-[(2-Acetyl-1H-pyrrolo[2,3-b]pyridin-5-ylamino)-methyl]-phenyl}-4-(4-methyl-piperazin-1-ylmethyl)-3-trifluoromethyl-benzamide], the inhibition at 0.1 µM in assay [2] is less than 50%; in assay [3], not below 50%; in assay [6] it was not below 50%; in assay [8], not below 50%. Further, the EC50 in [1] (A549, 72 h) is 0.1 to 1 µM; in [9] (MDA-MB-231, 72 h) it was not above 0.1 µM; in [10] (HepG2, 72 h), not above 0.1 µM; in assay [11] (72 h), 0.1 to 1 µM; in [12] (72 h), 0.1 to 1 µM.

For `CC(=O)c1cc2cc(NCc3cc(NC(=O)c4cc[nH]c4)ccc3C)cnc2[nH]1` [OR0986, 1H-Pyrrole-3-carboxylic acid {3-[(2-acetyl-1H-pyrrolo[2,3-b]pyridin-5-ylamino)-methyl]-4-methyl-phenyl}-amide], the inhibition at 0.1 µM was not below 50% in [2]; less than 50% in [3]; less than 50% in assay [5]; less than 50% in [6]; not below 50% in [7]; less than 50% in [8]. In addition, the EC50 was not below 1 µM in assay [10] (HepG2, 72 hr, MTT) and not below 1 µM in assay [11] (72 hr, MTT).

As for `CC(=O)c1cc2cc(NCc3cc(NC(=O)c4ccn[nH]4)ccc3C)cnc2[nH]1` [OR0987, 2H-Pyrazole-3-carboxylic acid {3-[(2-acetyl-1H-pyrrolo[2,3-b]pyridin-5-ylamino)-methyl]-4-methyl-phenyl}-amide], the inhibition at 0.1 µM in assay [2] was not below 50%; in assay [3], less than 50%; in assay [5], less than 50%; in assay [6], less than 50%; in assay [7], not below 50%; in [8], not below 50%. Further, the EC50 in assay [10] (HepG2, 72 hr, MTT) was not below 1 µM; in assay [11] (72 hr, MTT), not below 1 µM.

For `CC(=O)c1cc2cc(NCc3cc(NC(=O)c4ccncn4)ccc3C)cnc2[nH]1` [OR0988, Pyrimidine-4-carboxylic acid {3-[(2-acetyl-1H-pyrrolo[2,3-b]pyridin-5-ylamino)-methyl]-4-methyl-phenyl}-amide], the inhibition at 0.1 µM in [2], in assay [3], in [5], in assay [6], in [7] and in assay [8] was less than 50% each time. The EC50 is not below 1 µM in assay [10] (HepG2, 72 hr, MTT) and not below 1 µM in assay [11] (72 hr, MTT).

Regarding `Cc1ccc(NC(=O)c2cncc(C(F)(F)F)c2)cc1C(=S)Nc1cnc2[nH]c(C(=O)O)cc2c1` [OR1053], the inhibition at 0.1 µM in [2] was less than 50%; in [3], not below 50%; in assay [5], not below 50%; in assay [6] it was less than 50%; in assay [7], not below 50%; in assay [8], less than 50%. Further, the EC50 in [1] (A549, 72 hr, MTT) is not below 1 µM; in assay [9] (MDA-MB-231, 72 hr, MTT), not below 1 µM; in assay [10] (HepG2, 72 hr, MTT), not below 1 µM; in [11] (72 hr, MTT) it was not below 1 µM.

Turning to `CC(=O)c1cc2cc(NCc3cc(NC(=O)C4CCC(C(F)(F)F)CC4)ccc3F)cnc2[nH]1` (stereo not drawn) [OR1058, 4-Trifluoromethyl-cyclohexanecarboxylic acid {3-[(2-acetyl-1H-pyrrolo[2,3-b]pyridin-5-ylamino)-methyl]-4-fluoro-phenyl}-amide], the EC50 in assay [1] (A549, 72 hr, MTT) was not below 1 µM; in assay [9] (MDA-MB-231, 72 hr, MTT), not below 1 µM; in assay [10] (HepG2, 72 hr, MTT), not below 1 µM; in assay [11] (72 hr, MTT) it was not below 1 µM; in assay [12] (72 hr, MTT), not below 1 µM.

For the molecule `CC(=O)c1cc2cc(NCc3cc(NC(=O)c4cc(N5CCN(C)CC5)cc(C(F)(F)F)c4)ccc3F)cnc2[nH]1` [OR1060, N-{3-[(2-Acetyl-1H-pyrrolo[2,3-b]pyridin-5-ylamino)-methyl]-4-fluoro-phenyl}-3-(4-methyl-piperazin-1-yl)-5-trifluoromethyl-benzamide], the EC50 was 0.1 to 1 µM in assay [1] (A549, 72 h); 0.1 to 1 µM in [9] (MDA-MB-231, 72 h); not above 0.1 µM in assay [10] (HepG2, 72 h); 0.1 to 1 µM in assay [11] (72 h); not below 1 µM in [12] (72 hr, MTT).

With `COc1ccccc1C(=O)Nc1ccc(F)c(CNc2cnc3[nH]c(C(C)=O)cc3c2)c1` [OR1063, N-{3-[(2-Acetyl-1H-pyrrolo[2,3-b]pyridin-5-ylamino)-methyl]-4-fluoro-phenyl}-2-methoxy-benzamide], the EC50 was not below 1 µM in [1] (A549, 72 hr, MTT); not below 1 µM in [9] (MDA-MB-231, 72 hr, MTT); not below 1 µM in [10] (HepG2, 72 hr, MTT); not below 1 µM in assay [11] (72 hr, MTT); not below 1 µM in [12] (72 hr, MTT).

As for `CCCCCCNC(=O)c1cc2cc(NCc3cc(NC(=O)c4ccc(CN5CCN(C)CC5)c(C(F)(F)F)c4)ccc3C)cnc2[nH]1` [OR1069, 5-{2-Methyl-5-[4-(4-methyl-piperazin-1-ylmethyl)-3-trifluoromethyl-benzoylamino]-benzylamino}-1H-pyrrolo[2,3-b]pyridine-2-carboxylic acid hexylamide], the EC50 in assay [9] (MDA-MB-231, 72 h) is 0.1 to 1 µM; in assay [10] (HepG2, 72 h) it was 0.1 to 1 µM; in assay [11] (72 h), 0.1 to 1 µM; in assay [12] (72 hr, MTT), not below 1 µM.

As for `CCN(CC)C(=O)c1cc2cc(NCc3cc(NC(=O)c4ccc(CN5CCN(C)CC5)c(C(F)(F)F)c4)ccc3C)cnc2[nH]1` [OR1076, 5-{2-Methyl-5-[4-(4-methyl-piperazin-1-ylmethyl)-3-trifluoromethyl-benzoylamino]-benzylamino}-1H-pyrrolo[2,3-b]pyridine-2-carboxylic acid diethylamide], the EC50 in [1] (A549, 72 h) lay in the range of 0.1 to 1 µM.
